In data set [1] the target is T1, amyloid (aggregated Aβ1-40) (Homo sapiens, UniProt P05067).
T1 construct: Aβ1-40 (Peptide Institute, INC.) was dissolved in phosphate buffer (pH 7.4); purchased Peptide Institute, INC
Kind of data set: Measurement of affinity with amyloid: inhibition of [125I]3′-I-BTA-0 binding. Conditions: [125I]3′-I-BTA-0 400 pmol/L, amyloid 1 μmol/L, 22° C., 3 hours. How it is done:
Affinity of the present compounds with amyloid was examined by the following in vitro binding tests.
(1) Aβ1-40 (Peptide Institute, INC.) was dissolved in phosphate buffer (pH 7.4) and shaken at 37° C. for 62-72 hours, to obtain a 1 mg/mL suspension of aggregated Aβ (hereinafter referred to as amyloid suspension in this Example).
(3) According to the method described in a literature (Wang, Y., et al., J. Labeled Compounds Radiopharmaceut. 44, 5239 (2001)), [^125I]2-(3′-iodo-4′-aminophenyl)benzothiazole (hereinafter referred to as […]) was prepared from a labeling precursor 2-(4′-aminophenyl)benzothiazole, and dissolved in ethanol.
(5) Samples in which [^125I]3′-I-BTA-0, each compound for evaluation and amyloid were dissolved in a 0.1% bovine serum albumin-containing phosphate buffer (pH 7.4) at final concentrations shown in Table 1-2 were prepared. The resulting samples were filled in each well (about 0.3 mL in volume) of a 96-well microplate.
(6) The microplate filled with the sample solutions was shaken at a given rate (400 rpm) at 22° C. for 3 hours. Then, each sample solution was filtered through a glass fiber filter (trade name: Mulutiscreen™-FC, manufactured by Millipore), to separate the [^125I]3′-I-BTA-0 attached to amyloid from the free [^125I]3′-I-BTA-0.
(7) The glass fiber filter used for the filtration of each sample solution was washed with a 0.1% bovine serum albumin-containing phosphate buffer (pH 7.4) (0.5 mL×5), and radioactivity of the glass fiber filter was measured with an autowell gamma system (manufactured by Aloka, Type: ARC-301B).
(8) Separately, a solution of containing 15 μmol/L of 6-Me-BTA-2, […] of [^125I]3′-I-BTA-0 and 1 μmol/L of Aβ1-40 were prepared and subjected to the same procedures as described above in (6) and (7) to measure a radioactivity level. The measured radioactivity level was defined as the background radioactivity level, and used in the calculation of the inhibition ratio (hereinafter referred to as BG).
(9) Using the radioactivity levels measured above in (7) and (8), the inhibition ratio was determined by the following formula (1-1).
A graph in which values converted by probit transformation from the obtained inhibition ratios were plotted relative to logarithms of concentrations of compounds for evaluation was prepared to obtain an approximate straight line by the least square method. Using the line, the concentration of each compound for evaluation was determined, at which the radioactivity level is half of the level of the sample free from each compound for evaluation, and was defined as a 50% inhibition concentration of each compound (hereinafter referred to as IC50% value). Using the value as an indicator, affinity of each compound for evaluation with amyloid (aggregated Aβ1-40) was evaluated.

The subject of data set [2] is Salmonella typhimurium TA98. As to the kind of experiment: Reverse mutation test (Ames test), TA98. The data set is classed as cell-based. How it is done: (§1) In order to examine mutagenicity of Compound I-1, I-2, I-4 and I-5, reverse mutation test using Salmonella typhimurium TA98 and TA100 (hereinafter referred to as Ames test) was conducted.
(§2) The test was conducted without addition of S9mix and with addition of S9mix. Dimethylsulfoxide was used as a negative control. A positive control was 2-(2-furyl)-3-(5-nitro-2-furyl)acrylamide in case S9mix was not added, and 2-aminoanthracene in case S9mix was added.
(§3) The amount of each sample to be added to the test plate was 7 dosages (geometric ratio 4) with the maximum dose being 1250 μg/plate for Compounds I-1 and I-5, and 7 dosages (geometric ratio 3) with the maximum dose being 5000 μg/plate for Compounds I-2 and I-4. After a sample to be examined and a strain (TA98 or TA100), or a sample to be examined, S9mix and the strain were mixed together, the mixture was multilayered using soft agar on a medium of a test plate, and then incubated at 37° C. for 48 hours.

Data set [3] has as its system Salmonella typhimurium TA100. As to the kind of experiment: Reverse mutation test (Ames test), TA100. The data set is classed as cell-based. Here is the method: as §1, §2, §3
A general note: The Ames test uses bacterial strains that need an amino acid and regain growth without it when mutated back.

The subject of data set [4] is Salmonella typhimurium TA98 and TA100. As to the kind of experiment: Reverse mutation test (Ames test), overall judgment. The data set is classed as cell-based. The settings on record: TA98 and TA100, with and without S9mix. Here is the method: as §1, §2, §3
The numbers of reverse mutation colonies of the respective strains in the group treated with Compounds I-1, I-2, I-4 and I-5 were less than two times the number in the group treated with the negative control, regardless of addition of S9mix and the addition amount of a sample to be examined. From the aforementioned results, it is judged that Compounds I-1, I-2, I-4 and I-5 are negative in the Ames test and have no mutagenicity.

The target in the next data set is T2, amyloid (amylin) (Homo sapiens, UniProt P10997).
T2 construct: Amylin (human) (manufactured by Wako) was dissolved in phosphate buffer (pH 7.4); purchased Wako
T2 sequence (P10997 34-70 limits assumed): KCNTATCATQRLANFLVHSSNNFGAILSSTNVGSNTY
Kind of data set: Inhibition of binding of Thioflavin T to amyloid derived from amylin. Conditions: Thioflavin T 5 μmol/L. Here is the method:
Amylin is an amyloid accumulating in pancreas of type II diabetes.
(3) The amyloid suspension was dissolved in 50 mM phosphate buffer (pH 7.4) at a concentration of amylin of 15 μM.
(4) Samples in which each compound for evaluation and amyloid were dissolved in a 50 mM phosphate buffer (pH 7.4) at final concentrations shown in Table 2-1 were prepared.
(5) A sample in which 100 μL of 50 mM phosphate buffer (pH 7.4) and 50 μL of 50 mM glycin-NaOH buffer (pH 8.5) were mixed was made as a blank, and subjected to the same procedure as in (4) and used for a calculation of inhibition ratio.
(6) The microplate filled with the sample solutions was left to stand still for 30 hours. Then, fluorescence strength of each sample solution was measured (measurement conditions: excitation wavelength of 446 nm, emission wavelength of 490 nm) with microplate reader (type: SPECTRA MAX GEMINI XS, manufactured by Molecular Devices) (hereinafter, A denotes the fluorescence strength in a sample with zero (0) concentration of each compound for evaluation, and B denotes the fluorescence strength in a sample with 1.5 μmol/L or higher concentration of each compound for evaluation).
(7) Using the fluorescence strength measured above in (6), the following formula (2-1): […]
was used to determine the inhibition ratio.

The target in data set [5] is T1, amyloid (aggregated Aβ1-40). As to the kind of experiment: Measurement of binding to amyloid (radiolabelled compound, glass fiber filtration). The settings on record: amyloid 2.5-1000 nmol/L, 22° C., 3 hours. Here is the method:
(7) A relation between the amount of the Compound I-6 binding to amyloid and the amount of added amyloid was evaluated from the measurement results of (6). Unspecific binding was determined using a sample to which the Compound I-2 (non-RI labeled compound) was added to become 100 nM (at a final concentration) above in (4) (Example I-7).
(8) Using [^125I]-IMPY synthesized in the above Reference Example I-6, the same procedure as the above (2) to (6) were carried out to obtain control data (Comparative Example I-1).
A relation between the concentration of amyloid in the sample solution and the radioactive count on the glass fiber filter measured above in (6) is shown in FIG. 1-11. The radioactivity on the glass fiber was increased proportionally to the concentration (addition amount) of amyloid (Example I-7). […] Therefore, the radioactive count on the glass fiber is a value reflecting the amount of the compound attached to amyloid, and the slope of the graph which plotted the radioactive count relative to the concentration of amyloid is a value which can be an index representing the intensity of binding to amyloid.

Data set [6] in a line: Transferability into brain and clearance. The class given is in vivo, male Wistar rats. Conditions: rats, intravenous injection. The text has this: Three animals were used for Experiment I-20 and Comparative Experiment I-9, and two animals were used for Experiment I-21 at the respective time points.
Data set [7] concerns the target T3, amyloid (aggregated Aβ1-40) injected into amygdaloid nucleus (Homo sapiens, UniProt P05067).
T3 construct: Aβ1-40 (Peptide Institute, INC.) was dissolved in phosphate buffer (pH 7.4); purchased Peptide Institute, INC
Kind of data set: Confirmation of imaging of amyloid in brain (autoradiogram of brain slice, Aβ1-40 injected rat). The class given is in vivo, male Wistar rat. Conditions: tail vein, 16 MBq equivalent, brain removed 60 minutes after injection.
Method: The following experiment was carried out in order to examine whether amyloid in brain can be imaged by the compound of the present invention.
(1) Aβ1-40 (manufactured by Peptide Institute, INC.) was dissolved in phosphate buffer (pH 7.4) and shaken at 37° C. for 72 hours, to obtain 1 mg/mL of a suspension of aggregated Aβ (hereinafter referred to as amyloid suspension in this Example).
(2) 25 μL (corresponding to 25 μg) of the amyloid suspension was injected into an amygdaloid nucleus on one side of a male Wistar rat (7-week old). As a control, 25 μL of a phosphate buffered physiological saline solution (pH 7.4) was injected into an amygdaloid nucleus on the other side of the rat. The rats were examined 1 day after the injection of the amyloid suspension and the phosphate buffered physiological saline solution (pH 7.4).
This solution was injected into the rat through the tail vein (dosage: 0.5 mL, dosed radioactivity: 16 MBq equivalent).
(4) Brain was removed 60 minutes after the injection to prepare a brain slice of 10 μm in thickness with a microtome (type: CM3050S, manufactured by LEICA). The brain slice was exposed to an imaging plate for 20 hours, and then image analysis was carried out by use of a Bio-imaging Analyzer (type: BAS-2500; manufactured by FUJIFILM Corporation).

A short description of data set [8]: Partition coefficient based on the octanol extraction method. The settings on record: octanol / 10 mmol/L phosphate buffer (pH 7.4). The data set is classed as physicochemical.
Method: After the mixture was centrifuged with a low-speed centrifuge (2000 rpm×60 min.), the octanol layer and the water layer were sampled each in an amount of 1 mL, and subjected to measurement of radioactivity count with an autowell gamma system (manufactured by Aloka, Type: ARC-301B). Using the obtained radioactivity count, log Poctanol was calculated in accordance with the equation (1-2).
For data set [9] the following is noted: International Publication No. WO03/106439; cited from earlier work.
The conditions of data set [10]: [125I]-labeled, normal mice; cited from earlier work.

As a reminder, the IC50 is the point on the concentration scale where inhibition reaches its midpoint. Low readings indicate greater potency in that assay, high ones weaker potency in that assay.

T1 sequence (P05067 672-711 limits assumed): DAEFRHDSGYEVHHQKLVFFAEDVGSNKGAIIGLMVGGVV
T3 sequence (P05067 672-711): as the sequence (P05067 672-711 limits assumed) above

In [1], `FCCCOc1ccc(-c2cn3cc(Br)ccc3n2)cc1` [Compound I-1, 6-bromo-2-[4′-(3″-fluoropropoxy)phenyl]imidazo[1,2-a]pyridine] came in with an IC50 of 1.4 nM. The “Mutagenicity, TA98, With addition of S9mix” value in data set [2] is on record as “Negative”. In [2], the “Mutagenicity, TA98, Without addition of S9mix” value is reported as “Negative”. Besides, the “Mutagenicity, TA100, With addition of S9mix” value in data set [3] is “Negative”. In [3], the “Mutagenicity, TA100, Without addition of S9mix” value is “Negative”. Also, in data set [4], the Ames test judgment entry is on record as “negative”. For the same compound, the “Inhibition ratio (%) of binding of amyloid (amylin) to Thioflavin T” value (from here on “Inhibition ratio (%)”) at amyloid (amylin) (compound 1.5 μmol/L) is given as 14.5%; at amyloid (amylin) (compound 15 μmol/L), 37.0%; on amyloid (amylin) (compound 30 μmol/L) it was 43.7%.
Compound `FCCCOc1ccc(-c2cn3cc(I)ccc3n2)cc1` [Compound I-2, 2-[4′-(3″-fluoropropoxy)phenyl]-6-iodoimidazo[1,2-a]pyridine] yielded a 50% inhibitory concentration (IC50) in data set [1] of 0.9 nM. Besides, in [2], the “Mutagenicity, TA98, With addition of S9mix” value is given as “Negative” and the “Mutagenicity, TA98, Without addition of S9mix” value was “Negative”. Moreover, in data set [3], the “Mutagenicity, TA100, With addition of S9mix” value is listed as “Negative” and the “Mutagenicity, TA100, Without addition of S9mix” value is recorded as “Negative”. Also, in data set [4], the Ames test judgment result is listed as “negative”. The “Inhibition ratio (%)” value on amyloid (amylin) (compound 1.5 μmol/L) was found to be 28.9%. At amyloid (amylin) (compound 15 μmol/L), the “Inhibition ratio (%)” value amounted to 26.6%. For the same compound, on amyloid (amylin) (compound 30 μmol/L), the “Inhibition ratio (%)” value was 28.2%.
The compound `FCCOc1ccc(-c2cn3cc(Br)ccc3n2)cc1` [Compound I-3, 6-bromo-2-[4′-(2″-fluoroethoxy)phenyl]imidazo[1,2-a]pyridine] returned a half-inhibitory concentration (IC50) in data set [1] of 1.8 nM.
`FCCCOc1ccc(-c2cn3cc(I)cnc3n2)cc1` [Compound I-5, 2-[4′-(3″-fluoropropoxy)phenyl]-6-iodoimidazo[1,2-a]pyrimidine] had a half-maximal inhibitory concentration (IC50) in data set [1] of 55.4 nM. In addition, in data set [2], the “Mutagenicity, TA98, With addition of S9mix” value is “Negative” and the “Mutagenicity, TA98, Without addition of S9mix” value is “Negative”. Also, in data set [3], the “Mutagenicity, TA100, With addition of S9mix” value is given as “Negative” and the “Mutagenicity, TA100, Without addition of S9mix” value was “Negative”. Moreover, the Ames test judgment entry in data set [4] is on record as “negative”.
In the case of `FCCCOc1ccc(-c2cn3cc([125I])ccc3n2)cc1` [Compound I-6, 2-[4′-(3″-fluoropropoxy)phenyl]-6-[^125I]iodoimidazo[1,2-a]pyridine], in [5], the “slope of radioactive count on glass fiber relative to concentration of amyloid (index of intensity of binding to amyloid)” value is “greater than the slope for [^125I]-IMPY”.
For the compound `FCCCOc1ccc(-c2cn3cc([123I])ccc3n2)cc1` [Compound I-7, 2-[4′-(3″-fluoropropoxy)phenyl]-6-[^123I]iodoimidazo[1,2-a]pyridine], in data set [6], the “Radioactive distribution per unit weight in brain, After 2 min.” value is recorded as 1.10 % ID/g; the “Radioactive distribution per unit weight in brain, After 5 min.” value came to 0.75 % ID/g; the “Radioactive distribution per unit weight in brain, After 30 min.” value was 0.12 % ID/g; the “Radioactive distribution per unit weight in brain, After 60 min.” value came out at 0.05 % ID/g. Moreover, the “accumulation of radioactivity on intracerebral amyloid (autoradiogram)” value in data set [7] was “possesses a property of accumulating on intracerebral amyloid and a capability of imaging intracerebral amyloid”.
In the case of `[18F]CCCOc1ccc(-c2cn3cc(Br)ccc3n2)cc1` [Compound I-8, 6-bromo-2-[4′-(3″-[^18F]fluoropropoxy)-phenyl]imidazo[1,2-a]pyridine], the logPoctanol value in data set [8] was determined as 2.0. Further, in [6], the “Radioactive distribution per unit weight in brain, After 2 min.” value was 1.20 % ID/g; the “Radioactive distribution per unit weight in brain, After 5 min.” value amounted to 0.75 % ID/g; the “Radioactive distribution per unit weight in brain, After 30 min.” value was determined as 0.18 % ID/g; the “Radioactive distribution per unit weight in brain, After 60 min.” value was 0.12 % ID/g.
Consider `CC(=C(C#N)C#N)c1ccc2cc(N(C)CCF)ccc2c1` [FDDNP, 2-(1-{6-[(2-fluoroethyl)(methyl)amino]-2-naphthyl}ethylidene)malononitrile], for which the reverse mutation test result in data set [9] was “positive”.
In the case of `CN(C)c1ccc(-c2nc3ccc(I)cc3o2)cc1` [IBOX, 6-iodo-2-[4′-(N,N-dimethylamino)phenyl]benzoxazole], the “clearance from normal tissues” value in data set [10] was “insufficient in clearance from normal tissues”.
Regarding `CN(C)c1ccc(-c2nc3ccc(I)cc3s2)cc1` [TZDM, 6-iodo-2-[4′-(N,N-dimethylamino)phenyl]benzothiazole], in data set [10], the “clearance from normal tissues” value is “insufficient in clearance from normal tissues”.
For `CN(C)c1ccc(/C=C/c2ccc(I)cc2)cc1` [m-I—SB, (E)-4-dimethylamino-4′-iodostilbene], the “clearance from normal tissues” value in [10] was “insufficient in clearance from normal tissues”.

The values are drawn from patent publication US20100267952A1, “USE OF NOVEL COMPOUND HAVING AFFINITY FOR AMYLOID, AND PROCESS FOR PRODUCTION OF THE SAME” (NIHON MEDI-PHYSICS CO., LTD., priority 2007, published 2010).
